Source: PubChem BioAssay AID256 (DTP/NCI, 2004)
Values joined by “and” are separate entries in the source; they are usually repeats but may differ in a detail not shown here. Identical values can stand only once. Inconclusive results and toxic doses are left out.

Test system: CD2F1 mice, L1210 leukemia ip, survival T/C
Test: NCI In Vivo Anticancer Drug Screen. Data for tumor model L1210 Leukemia (intraperitoneal) in CD2F1 (CDF1) mice
Conditions: higher = longer survival
Summary of the method: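 Activity against a transplanted murine tumor was judged by comparing the compound group with a vehicle group. The outcome in the treated animals was divided by that in the controls.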

[1] = endpoint: mean survival time, dose: 12.5 mg/kg/injection, schedule: Q04DX003 (ip), vehicle: saline with Tween-80
[2] = endpoint: mean survival time, dose: 25.0 mg/kg/injection, schedule: Q04DX003 (ip), vehicle: saline with Tween-80
[3] = endpoint: mean survival time, dose: 100.0 mg/kg/injection, schedule: Q04DX003 (ip), vehicle: Klucel (hydroxypropylcellulose) (HPC)
[4] = endpoint: mean survival time, dose: 200.0 mg/kg/injection, schedule: Q04DX003 (ip), vehicle: Klucel (hydroxypropylcellulose) (HPC)
[5] = endpoint: mean survival time, dose: 100.0 mg/kg/injection, schedule: Q04DX002 (ip), vehicle: saline with Tween-80
[6] = endpoint: mean survival time, dose: 200.0 mg/kg/injection, schedule: Q04DX002 (ip), vehicle: saline with Tween-80
[7] = endpoint: mean survival time, dose: 100.0 mg/kg/injection, schedule: Q04DX003 (ip), vehicle: saline with Tween-80
[8] = endpoint: mean survival time, dose: 200.0 mg/kg/injection, schedule: Q04DX003 (ip), vehicle: saline with Tween-80
[9] = endpoint: mean survival time, dose: 400.0 mg/kg/injection, schedule: Q04DX003 (ip), vehicle: saline with Tween-80
[10] = endpoint: mean survival time, dose: 100.0 mg/kg/injection, schedule: Q01DX001 (ip), vehicle: saline
[11] = endpoint: mean survival time, dose: 200.0 mg/kg/injection, schedule: Q01DX001 (ip), vehicle: saline
[12] = endpoint: mean survival time, dose: 400.0 mg/kg/injection, schedule: Q01DX001 (ip), vehicle: saline
[13] = endpoint: mean survival time, dose: 25.0 mg/kg/injection, schedule: Q01DX009 (ip), vehicle: Klucel (hydroxypropylcellulose) (HPC)
[14] = endpoint: mean survival time, dose: 25.0 mg/kg/injection, schedule: Q01DX009 (ip), vehicle: saline with Tween-80
[15] = endpoint: mean survival time, dose: 50.0 mg/kg/injection, schedule: Q01DX009 (ip), vehicle: saline with Tween-80
[16] = endpoint: mean survival time, dose: 100.0 mg/kg/injection, schedule: Q01DX009 (ip), vehicle: saline with Tween-80
[17] = endpoint: mean survival time, dose: 200.0 mg/kg/injection, schedule: Q01DX009 (ip), vehicle: saline with Tween-80
[18] = endpoint: mean survival time, dose: 100.0 mg/kg/injection, schedule: Q04DX003 (ip), vehicle: saline
[19] = endpoint: mean survival time, dose: 200.0 mg/kg/injection, schedule: Q04DX003 (ip), vehicle: saline
[20] = endpoint: mean survival time, dose: 400.0 mg/kg/injection, schedule: Q04DX003 (ip), vehicle: saline

Nc1c([N+](=O)[O-])cncc1[N+](=O)[O-]
T/C (endpoint: mean survival time, dose: 6.25 mg/kg/injection, schedule: Q01DX009 (ip), vehicle: saline sonified): 102 % of control
T/C (endpoint: mean survival time, dose: 6.25 mg/kg/injection, schedule: Q04DX003 (ip), vehicle: saline with Tween-80): 98 % of control
T/C (endpoint: mean survival time, dose: 12.5 mg/kg/injection, schedule: Q01DX009 (ip), vehicle: saline sonified): 98 % of control
T/C [1]: 102 % of control
T/C (endpoint: mean survival time, dose: 25.0 mg/kg/injection, schedule: Q01DX009 (ip), vehicle: saline sonified): 98 % of control
T/C [2]: 102 % of control

O=c1nc(NC2CC2)ccn1C1OC(CO)C(O)C1O (stereo not given)
T/C (endpoint: median survival time, dose: 12.5 mg/kg/injection, schedule: Q01DX005 (ip), vehicle: water): 97 % of control
T/C (endpoint: median survival time, dose: 25.0 mg/kg/injection, schedule: Q01DX005 (ip), vehicle: water): 106 % of control
T/C (endpoint: median survival time, dose: 50.0 mg/kg/injection, schedule: Q01DX005 (ip), vehicle: water): 107 % of control
T/C (endpoint: median survival time, dose: 100.0 mg/kg/injection, schedule: Q01DX005 (ip), vehicle: water): 107 % of control
T/C (endpoint: median survival time, dose: 200.0 mg/kg/injection, schedule: Q01DX005 (ip), vehicle: water): 101 % of control

N#CC(C(N)=O)C1CC(=O)Oc2ccccc21 (stereo not given)
T/C [3]: 91 % of control
T/C [4]: 112 % of control

CCCCCCC(C)NCCOC(=O)c1ccccc1 (stereo not given)
T/C (endpoint: mean survival time, dose: 75.0 mg/kg/injection, schedule: Q01DX001 (ip), vehicle: saline): 103 % of control
T/C (endpoint: mean survival time, dose: 150.0 mg/kg/injection, schedule: Q01DX001 (ip), vehicle: saline): 102 % of control
T/C (endpoint: mean survival time, dose: 300.0 mg/kg/injection, schedule: Q01DX001 (ip), vehicle: saline): 97 % of control

CCSCCN1C(=O)C2C3CCC(O3)C2C1=O (stereo not given)
T/C [5]: 93 % of control
T/C [6]: 93 % of control

CC12OCCN1CC(COc1ccccc1)O2 (stereo not given)
T/C [7]: 104 % of control
T/C [8]: 98 % of control
T/C [9]: 110 % of control

O=C(CC(SCCN1CCOCC1)c1ccc([N+](=O)[O-])cc1)c1ccccc1 (stereo not given)
T/C (endpoint: mean survival time, dose: 100.0 mg/kg/injection, schedule: Q01DX001 (ip), vehicle: Klucel (hydroxypropylcellulose) (HPC)): 104 % of control
T/C (endpoint: mean survival time, dose: 200.0 mg/kg/injection, schedule: Q01DX001 (ip), vehicle: Klucel (hydroxypropylcellulose) (HPC)): 96 % of control
T/C (endpoint: mean survival time, dose: 400.0 mg/kg/injection, schedule: Q01DX001 (ip), vehicle: Klucel (hydroxypropylcellulose) (HPC)): 107 % of control

COc1ccc2cc3[n+](cc2c1OC)CCc1cc2c(cc1-3)OCO2
T/C (endpoint: mean survival time, dose: 5.0 mg/kg/injection, schedule: Q01DX009 (ip), vehicle: saline with Tween-80): 106 % of control
T/C (endpoint: mean survival time, dose: 5.0 mg/kg/injection, schedule: Q04DX003 (ip), vehicle: saline with Tween-80): 98 % of control
T/C (endpoint: mean survival time, dose: 10.0 mg/kg/injection, schedule: Q01DX009 (ip), vehicle: saline with Tween-80): 93 % of control
T/C (endpoint: mean survival time, dose: 10.0 mg/kg/injection, schedule: Q04DX003 (ip), vehicle: saline with Tween-80): 96 % of control
T/C (endpoint: mean survival time, dose: 20.0 mg/kg/injection, schedule: Q04DX003 (ip), vehicle: saline with Tween-80): 94 % of control

CCCN(CCC)S(=O)(=O)c1ccc(NC(=O)OC2CCCCCC2)cc1
T/C [10]: 104 % of control
T/C [11]: 108 % of control
T/C [12]: 104 % of control

NP(=O)(OCCC(=O)OCc1ccccc1)N(CCCl)CCCl (stereo not given)
T/C [13]: 97 % of control
T/C (endpoint: mean survival time, dose: 50.0 mg/kg/injection, schedule: Q01DX009 (ip), vehicle: Klucel (hydroxypropylcellulose) (HPC)): 92 % of control
T/C (endpoint: mean survival time, dose: 100.0 mg/kg/injection, schedule: Q01DX009 (ip), vehicle: Klucel (hydroxypropylcellulose) (HPC)): 91 % of control
T/C (endpoint: mean survival time, dose: 125.0 mg/kg/injection, schedule: Q01DX001 (ip), vehicle: Klucel (hydroxypropylcellulose) (HPC)): 95 % of control
T/C (endpoint: mean survival time, dose: 200.0 mg/kg/injection, schedule: Q01DX009 (ip), vehicle: Klucel (hydroxypropylcellulose) (HPC)): 94 % of control
T/C (endpoint: mean survival time, dose: 250.0 mg/kg/injection, schedule: Q01DX001 (ip), vehicle: Klucel (hydroxypropylcellulose) (HPC)): 93 % of control
T/C (endpoint: mean survival time, dose: 400.0 mg/kg/injection, schedule: Q01DX009 (ip), vehicle: Klucel (hydroxypropylcellulose) (HPC)): 97 % of control
T/C (endpoint: mean survival time, dose: 500.0 mg/kg/injection, schedule: Q01DX001 (ip), vehicle: Klucel (hydroxypropylcellulose) (HPC)): 98 % of control
T/C (endpoint: mean survival time, dose: 1000.0 mg/kg/injection, schedule: Q01DX001 (ip), vehicle: Klucel (hydroxypropylcellulose) (HPC)): 95 % of control

CCc1cc(C)cc(OC(=O)Nc2cccc(Cl)c2)c1
T/C [7]: 88 % of control
T/C [8]: 92 % of control
T/C [9]: 92 % of control

O=c1scc(-c2ccc(C(F)(F)F)cc2)s1
T/C (endpoint: mean survival time, dose: 12.5 mg/kg/injection, schedule: Q01DX009 (ip), vehicle: Klucel (hydroxypropylcellulose) (HPC)): 100 % of control
T/C [13]: 91 % of control

Nc1ccc(Cl)c([N+](=O)[O-])c1
T/C [3]: 94 % of control
T/C [4]: 91 % of control
T/C (endpoint: mean survival time, dose: 400.0 mg/kg/injection, schedule: Q04DX003 (ip), vehicle: Klucel (hydroxypropylcellulose) (HPC)): 89 % of control

Nc1nc(=O)n(CCCOc2cccc(NC(=O)c3cccc(S(=O)(=O)F)c3)c2)cc1-c1ccc(Cl)c(Cl)c1
T/C (endpoint: mean survival time, dose: 100.0 mg/kg/injection, schedule: Q01DX001 (ip), vehicle: saline with Tween-80): 87 % of control
T/C (endpoint: mean survival time, dose: 200.0 mg/kg/injection, schedule: Q01DX001 (ip), vehicle: saline with Tween-80): 90 % of control
T/C (endpoint: mean survival time, dose: 400.0 mg/kg/injection, schedule: Q01DX001 (ip), vehicle: saline with Tween-80): 87 % of control

COc1cc(NC(=O)CCl)ccc(=O)c1
T/C (endpoint: mean survival time, dose: 12.5 mg/kg/injection, schedule: Q01DX009 (ip), vehicle: saline with Tween-80): 106 % of control
T/C [1]: 99 % of control
T/C [14]: 104 % of control
T/C [2]: 91 % of control
T/C [15]: 90 % of control
T/C (endpoint: mean survival time, dose: 50.0 mg/kg/injection, schedule: Q04DX003 (ip), vehicle: saline with Tween-80): 94 % of control

Cc1ccc(NC(=O)Nc2ccccc2F)cc1NC(=O)Nc1ccccc1F
T/C [7]: 100 % of control
T/C [8]: 104 % of control
T/C [9]: 100 % of control

COC1OC2COc3ccccc3OC2C(N)C1N(C)c1ccccc1 (stereo not given)
T/C (endpoint: mean survival time, dose: 75.0 mg/kg/injection, schedule: Q01DX001 (ip), vehicle: saline with Tween-80): 100 % of control
T/C (endpoint: mean survival time, dose: 150.0 mg/kg/injection, schedule: Q01DX001 (ip), vehicle: saline with Tween-80): 97 % of control

CC(C)(O)C(=O)N/N=C/c1ccc(Cl)cc1
T/C [16]: 90 % of control
T/C [17]: 90 % of control

O=[N+]([O-])c1cccnc1SSc1ncccc1[N+](=O)[O-]
T/C [10]: 90 % of control
T/C [18]: 92 % of control
T/C [11]: 90 % of control
T/C [19]: 102 % of control
T/C [12]: 90 % of control
T/C [20]: 92 % of control

COC1OC(CO)C(OC)C(OC)C1NC(C)=O (stereo not given)
T/C (endpoint: mean survival time, dose: 100.0 mg/kg/injection, schedule: Q01DX001 (ip), vehicle: saline + alcohol): 101 % of control
T/C (endpoint: mean survival time, dose: 200.0 mg/kg/injection, schedule: Q01DX001 (ip), vehicle: saline + alcohol): 103 % of control
T/C (endpoint: mean survival time, dose: 400.0 mg/kg/injection, schedule: Q01DX001 (ip), vehicle: saline + alcohol): 97 % of control

CC(C)(C)NC(=O)Cc1ccccc1
T/C [15]: 95 % of control
T/C [16]: 97 % of control
T/C [17]: 95 % of control

CC(Cc1ccccc1)NC=O (stereo not given)
T/C [15]: 97 % of control
T/C [16]: 97 % of control

COc1cc(OC)c(NC(=O)Nc2ccc(SCC(=O)O)cc2)cc1Cl
T/C [15]: 93 % of control
T/C [16]: 89 % of control
T/C [17]: 86 % of control

CCCC(C(=O)O)C1=CCCC1 (stereo not given)
T/C [14]: 102 % of control
T/C [15]: 102 % of control
T/C [16]: 100 % of control

Cc1cc(NCCCCCCNc2cc(C)nc3cc(N(C)C)ccc23)c2ccc(N(C)C)cc2n1
T/C (endpoint: median survival time, dose: 3.12 mg/kg/injection, schedule: Q01DX009 (ip), vehicle: distilled water + Tween-80 + alcohol): 121 % of control
T/C (endpoint: median survival time, dose: 25.0 mg/kg/injection, schedule: Q01DX009 (ip), vehicle: distilled water + Tween-80 + alcohol): 152 % of control and 158 % of control

CCCCCCNC(=O)Oc1c(C/C=C/CCC(=O)O)c(OC)c(C)c2c1C(=O)OC2
T/C [5]: 108 % of control
T/C [6]: 112 % of control

CCCCCc1cccc(CC(=O)OCC)n1
T/C [18]: 89 % of control
T/C [19]: 94 % of control
T/C [20]: 94 % of control

N#[N+]c1cn(C2CC(O)C(CO)O2)c(=O)[nH]c1=O (stereo not given)
T/C [7]: 101 % of control
T/C [8]: 98 % of control
T/C [9]: 118 % of control
